Results as given in PubChem BioAssay AID2060601 (Molecular Pharmacology Branch, DTP, NCI, 2025).
pIC50: −log10 of the molar value.

Tested on: 874868-142-R-J2-PDC complex spheroids, growth % test/control
Assay: Anticancer human tumor 874868-142-R-J2-PDC patient-derived head and neck squamous carcinoma cell line growth inhibition [CLK]
Details: for pIC50: curve of first compound; for viability, T/C: stronger effect = lower value; active = viability on the fitted dose curve at most 10% of control; inactive = the rest
Summary of the method: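 Patient-derived tumor cells grown as complex spheroids with HUVEC endothelial cells and mesenchymal stem cells, treated with drug combinations. Concentrations descend in half-log steps from near clinical Cmax, or from 10 microM if Cmax unknown.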

[1] = second compound 0.0316 µM, first compound 0.0316 µM
[2] = second compound 0.0316 µM, first compound 0.1 µM
[3] = second compound 0.0316 µM, first compound 0.316 µM
[4] = second compound 0.0316 µM, first compound 1 µM
[5] = second compound 0.0316 µM, first compound 3.16 µM
[6] = second compound 0.0316 µM, first compound 10 µM
[7] = second compound 0.1 µM, first compound 0.0316 µM
[8] = second compound 0.1 µM, first compound 0.1 µM
[9] = second compound 0.1 µM, first compound 0.316 µM
[10] = second compound 0.1 µM, first compound 1 µM
[11] = second compound 0.1 µM, first compound 3.16 µM
[12] = second compound 0.1 µM, first compound 10 µM
[13] = second compound 0.316 µM, first compound 0.0316 µM
[14] = second compound 0.316 µM, first compound 0.1 µM
[15] = second compound 0.316 µM, first compound 0.316 µM
[16] = second compound 0.316 µM, first compound 1 µM
[17] = second compound 0.316 µM, first compound 3.16 µM
[18] = second compound 0.316 µM, first compound 10 µM
[19] = second compound 1 µM, first compound 0.0316 µM
[20] = second compound 1 µM, first compound 0.1 µM
[21] = second compound 1 µM, first compound 0.316 µM
[22] = second compound 1 µM, first compound 1 µM
[23] = second compound 1 µM, first compound 3.16 µM
[24] = second compound 1 µM, first compound 10 µM
[25] = second compound 3.16 µM, first compound 0.0316 µM
[26] = second compound 3.16 µM, first compound 0.1 µM
[27] = second compound 3.16 µM, first compound 0.316 µM
[28] = second compound 3.16 µM, first compound 1 µM
[29] = second compound 3.16 µM, first compound 3.16 µM
[30] = second compound 3.16 µM, first compound 10 µM
[31] = second compound 10 µM, first compound 0.0316 µM
[32] = second compound 10 µM, first compound 0.1 µM
[33] = second compound 10 µM, first compound 0.316 µM
[34] = second compound 10 µM, first compound 1 µM
[35] = second compound 10 µM, first compound 3.16 µM
[36] = second compound 10 µM, first compound 10 µM
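Also: spheroids exposed to the compounds for 7 days.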
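For viability, T/C in this document: 100% = DMSO vehicle control viability.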

CC(=O)O[C@H]1C(=O)[C@@]2(C)[C@H]([C@H](OC(=O)c3ccccc3)[C@]3(O)C[C@H](OC(=O)[C@H](O)[C@@H](NC(=O)c4ccccc4)c4ccccc4)C(C)=C1C3(C)C)[C@]1(OC(C)=O)CO[C@@H]1C[C@@H]2O + CNC(=O)c1ccc(Nc2nc(OC3CCCC3)c3c(-c4ccc5nc(C)oc5c4)c[nH]c3n2)c(OC)c1
inactive: viability, T/C [1] 47.4% | viability, T/C [2] 33.5% | viability, T/C [3] 39.4% | viability, T/C [4] 41.9% | viability, T/C [5] 48.9% | viability, T/C [6] 66.2% | viability, T/C [7] 53.9% | viability, T/C [8] 43.9% | viability, T/C [9] 50% | viability, T/C [10] 55.7% | viability, T/C [11] 62.7% | viability, T/C [12] 66.5% | viability, T/C [13] 54.3% | viability, T/C [14] 65.1% | viability, T/C [15] 72.6% | viability, T/C [16] 66.5% | viability, T/C [17] 77.6% | viability, T/C [18] 70.1% | viability, T/C [19] 47.1% | viability, T/C [20] 49.9% | viability, T/C [21] 53% | viability, T/C [22] 62.3% | viability, T/C [23] 52.6% | viability, T/C [24] 61.9% | viability, T/C [25] 47.8% | viability, T/C [26] 45.7% | viability, T/C [27] 52.4% | viability, T/C [28] 51% | viability, T/C [29] 57.5% | viability, T/C [30] 64.3% | viability, T/C [31] 43.7% | viability, T/C [32] 53% | viability, T/C [33] 58.3% | viability, T/C [34] 52.4% | viability, T/C [35] 57.6% | viability, T/C [36] 50.5%
< 5.00: pIC50 (second compound 0.316 µM)
> 7.50: pIC50 (second compound 0.0316 µM) | pIC50 (second compound 0.1 µM) | pIC50 (second compound 1 µM) | pIC50 (second compound 3.16 µM) | pIC50 (second compound 10 µM)

COc1ccc([C@@H](O)c2cc(-c3ncnc4cc(N5CCOCC5)ccc34)c(F)cc2Cl)nn1 + CNC(=O)c1ccc(Nc2nc(OC3CCCC3)c3c(-c4ccc5nc(C)oc5c4)c[nH]c3n2)c(OC)c1
inactive: viability, T/C [1] 106% | viability, T/C [2] 100% | viability, T/C [3] 101% | viability, T/C [4] 64.5% | viability, T/C [5] 47.6% | viability, T/C [6] 31.7% | viability, T/C [7] 81.5% | viability, T/C [8] 89.7% | viability, T/C [9] 73.7% | viability, T/C [10] 67.5% | viability, T/C [11] 52.6% | viability, T/C [12] 36.9% | viability, T/C [13] 52.7% | viability, T/C [14] 60% | viability, T/C [15] 55.6% | viability, T/C [16] 40.5% | viability, T/C [17] 40.3% | viability, T/C [18] 23.4% | viability, T/C [19] 43.5% | viability, T/C [20] 46.5% | viability, T/C [21] 40% | viability, T/C [22] 29.7% | viability, T/C [23] 25.1% | viability, T/C [24] 23.1% | viability, T/C [25] 37.6% | viability, T/C [26] 38.9% | viability, T/C [27] 45.2% | viability, T/C [28] 32.9% | viability, T/C [29] 37% | viability, T/C [30] 23.5% | viability, T/C [31] 40.4% | viability, T/C [32] 38.6% | viability, T/C [33] 39.2% | viability, T/C [34] 28.6% | viability, T/C [35] 32.3% | viability, T/C [36] 18.6%
5.43: pIC50 (second compound 0.1 µM)
5.65: pIC50 (second compound 0.0316 µM)
6.29: pIC50 (second compound 0.316 µM)
> 7.50: pIC50 (second compound 1 µM) | pIC50 (second compound 3.16 µM) | pIC50 (second compound 10 µM)

COc1cccc2c1C(=O)c1c(O)c3c(c(O)c1C2=O)CC(O)(C(=O)CO)CC3OC1CC(N)C(O)C(C)O1 (stereo unspecified) + CNC(=O)c1ccc(Nc2nc(OC3CCCC3)c3c(-c4ccc5nc(C)oc5c4)c[nH]c3n2)c(OC)c1
7.33: pIC50 (second compound 0.316 µM)
7.07: pIC50 (second compound 0.1 µM)
> 7.50: pIC50 (second compound 1 µM) | pIC50 (second compound 3.16 µM) | pIC50 (second compound 10 µM)
7.13: pIC50 (second compound 0.0316 µM)
active: viability, T/C [4] 1.04% | viability, T/C [5] 0.15% | viability, T/C [6] 0.15% | viability, T/C [10] 0.86% | viability, T/C [11] 0.16% | viability, T/C [12] 3.76% | viability, T/C [16] 0.22% | viability, T/C [17] 0.17% | viability, T/C [18] 6.83% | viability, T/C [22] 0.21% | viability, T/C [23] 1.61% | viability, T/C [24] 0.16% | viability, T/C [28] 0.19% | viability, T/C [29] 1.44% | viability, T/C [30] 11.7% | viability, T/C [34] 0.27% | viability, T/C [35] 3.05% | viability, T/C [36] 5.77%
inactive: viability, T/C [1] 65.8% | viability, T/C [2] 40.8% | viability, T/C [3] 29.2% | viability, T/C [7] 66.7% | viability, T/C [8] 45.7% | viability, T/C [9] 23.5% | viability, T/C [13] 55.9% | viability, T/C [14] 38.6% | viability, T/C [15] 16.9% | viability, T/C [19] 32.1% | viability, T/C [20] 28.1% | viability, T/C [21] 17.6% | viability, T/C [25] 33.2% | viability, T/C [26] 27.8% | viability, T/C [27] 13.3% | viability, T/C [31] 28.5% | viability, T/C [32] 30.5% | viability, T/C [33] 15.8%
